Measurements taken from ChEMBL document CHEMBL1157539, “Thousands of chemical starting points for antimalarial lead identification” (Nature, 2010).

Test system: Plasmodium falciparum
Assay: GSK_TCMDC: Inhibition of Plasmodium falciparum 3D7 in whole erythrocytes, using parasite LDH activity as an index of growth.
Format: functional, organism-based
Details: Plasmodium falciparum, 3D7

Row | Compound | XC50
1 | Cc1nc2ccccc2c(=O)n1/N=C/c1ccccc1[N+](=O)[O-] | 221 nM
2 | CCN(CC)CCN(Cc1ccc(-c2ccc(C(F)(F)F)cc2)cc1)C(=O)Cn1cc(CCCc2cccc(F)c2F)c(=O)c2ccccc21 | 1060 nM
3 | C#CCN1CCC2=C(C1)c1c(O)cc(C(C)CCCc3ccc(F)cc3)cc1OC2(C)C (configuration not stated) | 731 nM
4 | O=C1COC2(CN1CC1CCN(Cc3ccc(O)c(Cl)c3)C1)c1ccccc1-c1ccccc12 (configuration not stated) | 1060 nM
5 | O=C(Nc1ccc(I)cc1)Nc1ccc(Cn2ncc(N3CCCNCC3)c(Cl)c2=O)cc1 | 1120 nM
6 | c1cncc(CCNCc2ccc(-c3ccc(CNC4Cc5ccccc5C4)cc3)cc2)c1 | 1090 nM
7 | Cc1noc(C)c1S(=O)(=O)N(C)Cc1ccc(-c2ccc(Cl)cc2)o1 | 362 nM
8 | O=C(NC1CCC(CN2CCC(c3c[nH]c4ccccc34)CC2)CC1)c1cc2cccc([N+](=O)[O-])c2[nH]1 (configuration not stated) | 341 nM
9 | CCCCc1ccccc1NS(=O)(=O)c1ccc(OC)c(N2CCNCC2)c1 | 1380 nM
10 | Cc1cc2c(cc1C(F)(F)F)N(C(=O)Nc1ccc(C(=O)NCCN3CCCC3)cc1)CC2 | 321 nM
11 | COc1cccc(OC)c1OCCCON1C(=N)N=C(N)NC1(C)C | 7.28 nM
12 | CN(C(=O)c1ccc(Br)cc1)c1ccccc1[N+](=O)[O-] | 926 nM
13 | CC(=O)Nc1ccccc1OCc1cc2cc(C(=O)N3CCC(N4C(=O)OCc5ccccc54)CC3)ccc2o1 | 236 nM
14 | CC(C)(C)C1=CC(=NNC(=O)c2ccncc2)C=C(C(C)(C)C)C1=O | 704 nM
15 | COc1ccc(CON2C(=N)N=C(N)NC2(C)C)cc1OC | 6.06 nM
16 | C(=NN=c1cc(-c2ccccc2)[nH]c2ccccc12)c1cccnc1 | 1230 nM
17 | CCCCC(=O)N(CCOC)Cc1ccc(-c2ccc(CNCCC)cn2)cc1 | 730 nM
18 | COc1ccc(-c2ccc(CNC3Cc4ccccc4C3)cc2)cc1S(=O)(=O)NCCN1CCCC1 | 798 nM
19 | Nc1cccc(CNCc2cccc(-c3ccc(-c4nc5ccccc5[nH]4)cc3)c2)c1 | 415 nM
20 | COc1ccc(C(=O)C2CC2CN2CC=C(c3c[nH]c4ccc(OC)nc34)CC2)cc1 (configuration not stated) | 479 nM
21 | O=C(NC1CC1)c1ccc(N2CCC(Oc3ccc(F)cc3)CC2)nc1 | 1090 nM
22 | O=C(Nc1cccc(-c2nn3ccccc3c2-c2ccnc(Nc3cccc(F)c3)n2)c1)c1c(F)ccc(F)c1F | 856 nM
23 | c1cc(CNCCN2CCNCC2)cc(-c2ccc(-c3nc4ccccc4[nH]3)cc2)c1 | 1080 nM
24 | CCCCCCC(C)c1cc(OCCN(CC)CC)c2c(c1)OC(C)(C)C=C2c1ccncc1 (configuration not stated) | 1260 nM
25 | CN1CCN(c2ccnc3ccc(NC(=O)Cc4ccc5ccccc5c4)cc23)CC1 | 759 nM

Row | Compound | XC50
26 | CCCc1c(C(=O)NC2CCC(CN3CCC(c4c[nH]c5ccccc45)CC3)CC2)cnn1-c1ccccc1 (configuration not stated) | 1790 nM
27 | O=C(NCc1ccccc1)NC(CCCN1CCC(Oc2cccc(Cl)c2)CC1)c1ccc(Cl)c(Cl)c1 (configuration not stated) | 862 nM
28 | O=C(Nc1ccc(-c2ccc(-c3nc4cc(C(F)(F)F)ccc4[nH]3)cc2)cc1)Nc1ccc(F)c(F)c1F | 217 nM
29 | O=C(CCNc1ccnc(NCC2CCCCC2)n1)Nc1ccccc1 | 1100 nM
30 | O=C1CSc2ccc(CNC3CCN(CCc4c(Cl)cnc5ccc(F)cc45)CC3)nc2N1 | 427 nM
31 | O=C(/C=C/c1ccc(Cl)c(Cl)c1)NCCC1CCC(N2CCC(c3c[nH]c4ccc(O)cc34)CC2)CC1 (configuration not stated) | 762 nM
32 | CC(=O)Nc1ccc(CN2CCC(NC(=O)c3ccc(-c4cccc(OC(C)C)c4)s3)CC2)cc1 | 1460 nM
33 | O=C(Nc1ccsc1)Nc1cccc(-c2cccc(-c3nc4ccccc4[nH]3)c2)c1 | 117 nM
34 | N=C(NCCCCC1CCCCC1)c1cccc(C(=N)NCCCCC2CCCCC2)n1 | 395 nM
35 | CCCc1c(C(=O)OCC)c2cc(O)ccc2n1-c1ccc(OC)cc1 | 138 nM
36 | CCCN(CCC)CCCOc1ccc(C(=O)c2c(-c3ccc(OCCCN(CCC)CCC)cc3)oc3ccc(Cl)cc23)cc1 | 340 nM
37 | O=C(Nc1cccc(-c2ccc(CN3CCCC3)cc2)c1)c1ccc(F)cc1 | 1080 nM
38 | COc1cc(NC(=O)/C=C/c2cccc3cc[nH]c23)ccc1OCCN(C(C)C)C(C)C | 270 nM
39 | O=C(NC1CCCCC1)C(c1cccs1)N(CCc1ccccc1)C(=O)c1ccco1 (configuration not stated) | 1040 nM
40 | O=C(Nc1ccc(Cl)c(Cl)c1)Nc1ccc2nccc(N3CCNCC3)c2c1 | 262 nM
41 | COC(=O)c1cccc(CNCc2cccc(-c3cccc(-c4nc5cc(C(F)(F)F)ccc5[nH]4)c3)c2)c1 | 172 nM
42 | N#Cc1ccc(-c2ccc(C(=O)NCCCCN3CCC(c4nc5ccccc5[nH]4)CC3)cc2)cc1 | 1010 nM
43 | Nc1nccc(-c2ccc3c(/C=C/c4ccccc4)cnc(N)c3c2)n1 | 621 nM
44 | CCCCCN1CCCC(NS(=O)(=O)c2ccc(C(=O)Nc3cccc(C(F)(F)F)c3)cc2)C1 (configuration not stated) | 795 nM
45 | CCn1c(-c2nonc2N)nc2c(-c3cccc(NC(=O)Nc4cccc(C(F)(F)F)c4)c3)ncc(OCCCN)c21 | 969 nM
46 | Cc1cc(C2CCN(CCCCNC(=O)c3ccc(NC(=O)c4ccc(Cl)cc4)cc3)CC2)c(C)cc1OCc1ccncc1 | 501 nM
47 | Cc1cc(C2CCN(CCCCNC(=O)c3ccc(NC(=O)c4ccc(Cl)cc4)cc3)CC2)c(C)cc1OCc1nccn1C | 835 nM
48 | O=C(Nc1ccncc1)c1cc(C(=O)Nc2ccncc2)cc([N+](=O)[O-])c1 | 614 nM
49 | O=C(Nc1cc(Cl)ccc1Cl)N[C@H]1CCN(CCCCCNC(=O)C2CC2c2ccc(Cl)c(Cl)c2)C1 (some centres not stated) | 770 nM
50 | COc1ccc(C(=O)C2CCN(CCCCNC(=O)c3ccc(NC(=O)c4ccc(Cl)cc4)cc3)CC2)c(OC)c1 | 772 nM

Row | Compound | XC50
51 | CCc1cc2c(cc1OCCN(C)C)N(C(=O)Nc1ccc(-c3ccncc3)c(Cl)c1)CC2 | 840 nM
52 | COc1ccccc1N1CCN(Cc2c(NC(C)=O)sc(C)c2C)CC1 | 425 nM
53 | Cc1cc2nc(-c3ccc(/C=C/C(=O)NC4CCN(Cc5ccccc5)CC4)cc3)[nH]c2cc1C | 588 nM
54 | COc1ccccc1N(C)CCNc1cc(C)nc(Nc2ccc(C)cc2)n1 | 1570 nM
55 | COc1ccccc1CNC(=O)c1cc(Br)cc(N2CCN(c3ccncc3)CC2)c1 | 946 nM
56 | COc1ccc(NC(=O)c2ccc(-c3ccc(-c4cccnc4)cc3)c(C)c2)cc1OCCN(C)C | 201 nM
57 | COc1cc2nc(N[C@@H](CO)c3ccccc3)nc(NCc3ccccc3)c2cc1OC | 657 nM
58 | CCN(CC)CCN(Cc1ccc(-c2ccc(C(F)(F)F)cc2)cc1)C(=O)c1c[nH]c2ccc(Br)cc12 | 953 nM
59 | CCCCCOc1c(CCC)cc(Cc2cnc(N)nc2N)cc1CCC | 898 nM
60 | CC(=O)c1ccc(-c2ccccc2)s1 | 1080 nM
61 | Fc1ccc2[nH]c(-c3cccc(-c4cccc(CNCc5cnn(-c6ccccc6)n5)c4)c3)nc2c1 | 971 nM
62 | Cc1nc(N)nc(N)c1-c1ccc(Br)c(Br)c1 | 53.6 nM
63 | Cc1cc2c(cc1C(F)(F)F)N(C(=O)Nc1cc(OCCN(C)C)cc(C(F)(F)F)c1)CC2 | 708 nM
64 | CC[C@H]1CN2CC[C@H]1C[C@H]2[C@H](O)c1cc(-c2ccc(OC(F)(F)F)cc2)nc2ccc(OC)cc12 | 51.1 nM
65 | Cc1[nH]c2cc(F)ccc2c1C1=CCN(CCCCC2(C)C(=O)Nc3c(F)cccc32)CC1 (configuration not stated) | 397 nM
66 | Clc1ccc(OCc2ccccc2)c(-c2nc(-c3nc4ncc(Br)cc4[nH]3)cs2)c1 | 214 nM
67 | Cc1nc(-c2cccc(C(F)(F)F)c2)n2nc(Nc3ccc(OCCN4CCCC4)cc3)ncc12 | 751 nM
68 | Cc1ccc(C(NC(=O)C2CCCCC2)c2ccc3cccnc3c2O)cc1 (configuration not stated) | 953 nM
69 | N#Cc1ccc2c(c1)CCN(CCC1CCC(NC(=O)Nc3ccncc3)CC1)C2 (configuration not stated) | 1130 nM
70 | COc1cc(CN=C(S)NN=C(C)c2ccccn2)cc(OC)c1OC | 396 nM
71 | O=C(Nc1ccc(CN2CCOCC2)cc1)c1ccc(-c2cc(Cl)ccc2Cl)o1 | 613 nM
72 | NC(=O)c1cccc(C(=O)Nc2cccc(-c3ccc(-c4nc5cc(C(F)(F)F)ccc5[nH]4)cc3)c2)c1 | 520 nM
73 | COc1ccc(Nc2nc(NCc3ccco3)c3ccccc3n2)cc1 | 740 nM
74 | CCN(CC)CCN(CCN(CC)CC)c1ccc(-c2nc3cc(Cl)c(Cl)cc3[nH]2)cc1 | 785 nM
75 | O=C(Nc1cccc(-c2nc3ccccc3[nH]2)c1)c1cccc(NC(=O)c2ccco2)c1 | 360 nM

Row | Compound | XC50
76 | Cc1cc(Cl)c(Cl)cc1NC(=O)Nc1cccc(C(F)(F)F)c1 | 873 nM
77 | CCOC(=O)c1c(C)noc1Nc1cccc(C)c1C | 416 nM
78 | Cc1cc(OCCCN2CCC(NS(=O)(=O)c3cccc(Br)c3)CC2)c2ccccc2n1 | 1110 nM
79 | O=C(Nc1ccnc(N2CCCN(Cc3cccc(O)c3)CC2)c1)c1ccc(F)cc1 | 1480 nM
80 | Cc1cc(=NN=Cc2ccc(F)cc2)c2cc(C(F)(F)F)ccc2[nH]1 | 228 nM
81 | CCCC(C(=O)OCCN(CC)CC)(c1ccc(Cl)cc1)c1ccc(Cl)cc1 | 880 nM
82 | Cc1ccc(C)c(NC(=O)NCCNc2ccnc(Nc3ccc(F)cc3)n2)c1 | 817 nM
83 | O=C(/C=C/c1ccc(C(F)(F)F)cc1)N1CCC(CCN2CCC(c3c[nH]c4ccccc34)CC2)CC1 | 716 nM
84 | COC(=O)c1ccc(CC(C)NCC(O)c2cccc(C(F)(F)F)c2)cc1C (configuration not stated) | 974 nM
85 | CC1(C)N=C(NC(=O)c2ccc([N+](=O)[O-])cc2)N=C(N)N1OCc1ccc2ccccc2c1 | 7.57 nM
86 | Cc1[nH]c(C)c(-c2ccc(OCCCCSc3ccncc3)cc2)c(=O)c1Br | 246 nM
87 | CSC1=NC(=Nc2c(C)cccc2C)C2(CCC(C(C)(C)C)CC2)N1c1ccc(O)cc1 (configuration not stated) | 250 nM
88 | Cc1cc2ncn(-c3nccc(NCc4ccc(F)cc4)n3)c2cc1C | 886 nM
89 | CCCCCC(C)C(C)c1cc(OC(N)=O)c2c(c1)OC(C)(C)C=C2c1ccncc1 (configuration not stated) | 895 nM
90 | COc1ccc2[nH]cc(C3CC4CCC(C3)N4CCC3CCN(C(=O)/C=C/c4ccc(Cl)c(Cl)c4)CC3)c2c1 (configuration not stated) | 624 nM
91 | Cc1ccc(NC(=O)Nc2ccc(I)c(OCCN(C)C)c2)cc1Cl | 564 nM
92 | C=CCn1c(Cc2ccccc2)nnc1Sc1ccc(C#N)c([N+](=O)[O-])c1 | 1030 nM
93 | CC(C)(C)NCC(O)COc1ccc(Cl)cc1C1=NNC(=O)CC1 (configuration not stated) | 150 nM
94 | O=C(Nc1cccc(-c2ccc(-c3nc4cc(F)ccc4[nH]3)cc2)c1)c1csnn1 | 278 nM
95 | COc1cc(Br)c(S(=O)(=O)n2cc(CN3CCC(N)CC3)c3cc(Cl)ccc32)cc1OC | 985 nM
96 | O=C(c1cccc(COc2ccc3c(c2)CCN(C2CCCC2)CC3)c1)N1CCN(c2ccncc2)CC1 | 740 nM
97 | Cn1nccc1C(=O)NCCNCc1ccc(-c2cccc(-c3nc4cc(C(F)(F)F)ccc4[nH]3)c2)cc1 | 117 nM
